According to publication PMC7587962, “Evaluation of Cytotoxicity and α-Glucosidase Inhibitory Activity of Amide and Polyamino-Derivatives of Lupane Triterpenoids” (Molecules, 2020):

Experiments:
HCT-116 = assay: NCI-60 SRB screen: colon cancer HCT-116; type: cell-based; conditions: Homo sapiens, HCT-116, 48 h
K-562 = assay: NCI-60 SRB screen: leukemia K-562; type: cell-based, human
MOLT-4 = assay: NCI-60 SRB screen: leukemia MOLT-4; type: cell-based; conditions: Homo sapiens, MOLT-4, 48 h
CAKI-1 = assay: NCI-60 SRB screen: renal cancer CAKI-1; type: cell-based, human
HT29 = assay: NCI-60 SRB screen: colon cancer HT29; type: cell-based; conditions: Homo sapiens, HT-29, 48 h
MDA-MB-231/ATCC = assay: NCI-60 SRB screen: breast cancer MDA-MB-231/ATCC; type: cell-based; conditions: Homo sapiens, MDA-MB-231, 48 h
SW-620 = assay: NCI-60 SRB screen: colon cancer SW-620; type: cell-based; conditions: Homo sapiens, SW-620, 48 h
SNB-19 = assay: NCI-60 SRB screen: CNS cancer SNB-19; type: cell-based, human
MDA-MB-435 = assay: NCI-60 SRB screen: melanoma MDA-MB-435; type: cell-based, human
A549/ATCC = assay: NCI-60 SRB screen: non-small cell lung cancer A549/ATCC; type: cell-based, human
UACC-257 = assay: NCI-60 SRB screen: melanoma UACC-257; type: cell-based, human
M14 = assay: NCI-60 SRB screen: melanoma M14; type: cell-based, human
SN12C = assay: NCI-60 SRB screen: renal cancer SN12C; type: cell-based, human
BT-549 = assay: NCI-60 SRB screen: breast cancer BT-549; type: cell-based, human
UACC-62 = assay: NCI-60 SRB screen: melanoma UACC-62; type: cell-based, human
HCT-15 = assay: NCI-60 SRB screen: colon cancer HCT-15; type: cell-based, human
NCI/ADR-RES = assay: NCI-60 SRB screen: ovarian cancer NCI/ADR-RES; type: cell-based, human
SF-295 = assay: NCI-60 SRB screen: CNS cancer SF-295; type: cell-based, human
HS 578T = assay: NCI-60 SRB screen: breast cancer HS 578T; type: cell-based, human
MCF7 = assay: NCI-60 SRB screen: breast cancer MCF7; type: cell-based; conditions: Homo sapiens, MCF7, 48 h
NCI-H226 = assay: NCI-60 SRB screen: non-small cell lung cancer NCI-H226; type: cell-based, human
Renal Cancer subpanel = assay: NCI-60 screen, subpanel Renal Cancer
ACHN = assay: NCI-60 SRB screen: renal cancer ACHN; type: cell-based, human
Leukemia subpanel = assay: NCI-60 screen, subpanel Leukemia
DU-145 = assay: NCI-60 SRB screen: prostate cancer DU-145; type: cell-based, human
Prostate cancer subpanel = assay: NCI-60 screen, subpanel Prostate cancer
CCRF-CEM = assay: NCI-60 SRB screen: leukemia CCRF-CEM; type: cell-based; conditions: Homo sapiens, 48 h
OVCAR-3 = assay: NCI-60 SRB screen: ovarian cancer OVCAR-3; type: cell-based, human
SK-MEL-5 = assay: NCI-60 SRB screen: melanoma SK-MEL-5; type: cell-based, human
786-0 = assay: NCI-60 SRB screen: renal cancer 786-0; type: cell-based, human
KM12 = assay: NCI-60 SRB screen: colon cancer KM12; type: cell-based, human
NCI-H23 = assay: NCI-60 SRB screen: non-small cell lung cancer NCI-H23; type: cell-based, human
EKVX = assay: NCI-60 SRB screen: non-small cell lung cancer EKVX; type: cell-based, human
U251 = assay: NCI-60 SRB screen: CNS cancer U251; type: cell-based; conditions: Homo sapiens, U-251, 48 h
OVCAR-8 = assay: NCI-60 SRB screen: ovarian cancer OVCAR-8; type: cell-based, human
LOX IMVI = assay: NCI-60 SRB screen: melanoma LOX IMVI; type: cell-based, human
MALME-3M = assay: NCI-60 SRB screen: melanoma MALME-3M; type: cell-based, human
[1] = read-out: Percentage Cell Growth

C=C(C)[C@@H]1CC[C@]2(C(N)=O)CC[C@]3(C)[C@H](CC[C@@H]4[C@@]5(C)CC[C@H](O)C(C)(C)[C@@H]5CC[C@]43C)[C@@H]12 [Compound 5]
GI50 (HCT-116): 1.97 µM | activity at 10 µM (HCT-116; [1]): -24.8% | GI50 (K-562; Homo sapiens, K562, 48 h): 3.04 µM | Percentage Cell Growth (K-562; K-562, single dose 10 µM): 4.57% | GI50 (MOLT-4): 3.43 µM | activity at 10 µM (MOLT-4; [1]): 1.86% | Percentage Cell Growth (CAKI-1; CAKI-1, single dose 10 µM): −64.30% | GI50 (CAKI-1; Homo sapiens, CAKI-1, 48 h): 1.98 µM | GI50 (HT29): 2.56 µM | activity at 10 µM (HT29; [1]): -49.5% | GI50 (MDA-MB-231/ATCC): 1.97 µM | activity at 10 µM (MDA-MB-231/ATCC; [1]): -28.4% | GI50 (SW-620): 3.88 µM | activity at 10 µM (SW-620; [1]): -4.49% | GI50 (SNB-19; Homo sapiens, SNB-19, 48 h): 4.57 µM | Percentage Cell Growth (SNB-19; SNB-19, single dose 10 µM): 1.30% | GI50 (MDA-MB-435; Homo sapiens, MDA-MB-435, 48 h): 8.65 µM | Percentage Cell Growth (MDA-MB-435; MDA-MB-435, single dose 10 µM): −4.44% | Percentage Cell Growth (A549/ATCC; A549/ATCC, single dose 10 µM): −69.33% | GI50 (A549/ATCC; Homo sapiens, A549, 48 h): 2.11 µM | GI50 (UACC-257; Homo sapiens, UACC-257, 48 h): 13.2 µM | Percentage Cell Growth (UACC-257; UACC-257, single dose 10 µM): −6.08% | GI50 (M14; Homo sapiens, M14, 48 h): 6.05 µM | Percentage Cell Growth (M14; M14, single dose 10 µM): 8.80% | GI50 (SN12C; Homo sapiens, 48 h): 3 µM | Percentage Cell Growth (SN12C; single dose 10 µM): −45.76% | Percentage Cell Growth (BT-549; BT-549, single dose 10 µM): −21.60% | GI50 (BT-549; Homo sapiens, BT-549, 48 h): 3.99 µM | GI50 (UACC-62; Homo sapiens, UACC-62, 48 h): 4.2 µM | Percentage Cell Growth (UACC-62; UACC-62, single dose 10 µM): −23.23% | Percentage Cell Growth (HCT-15; HCT-15, single dose 10 µM): 6.36% | GI50 (HCT-15; Homo sapiens, HCT-15, 48 h): 3.28 µM | GI50 (NCI/ADR-RES; Homo sapiens, 48 h): 3.17 µM | Percentage Cell Growth (NCI/ADR-RES; single dose 10 µM): −8.91% | GI50 (SF-295; Homo sapiens, SF-295, 48 h): 3.39 µM | Percentage Cell Growth (SF-295; SF-295, single dose 10 µM): −57.70% | Percentage Cell Growth (HS 578T; HS 578T, single dose 10 µM): −1.70% | GI50 (HS 578T; Homo sapiens, Hs-578T, 48 h): 5.74 µM | GI50 (MCF7): 2.91 µM | activity at 10 µM (MCF7; [1]): -12.5% | GI50 (NCI-H226; Homo sapiens, NCI-H226, 48 h): 4.11 µM | Percentage Cell Growth (NCI-H226; NCI-H226, single dose 10 µM): −50.47% | MID b, average sensitivity of all cell line of particular subpanel (Renal Cancer subpanel): 3.53 µM | Selectivity, ratio MID a: MID b (Renal Cancer subpanel): 1.04 | GI50 (ACHN; Homo sapiens, 48 h): 2.44 µM | Percentage Cell Growth (ACHN; single dose 10 µM): −80.29% | MID b, average sensitivity of all cell line of particular subpanel (Leukemia subpanel): 3.20 µM | Selectivity, ratio MID a: MID b (Leukemia subpanel): 1.15 | Percentage Cell Growth (DU-145; DU-145, single dose 10 µM): −32.96% | GI50 (DU-145; Homo sapiens, DU-145, 48 h): 3.21 µM | MID b, average sensitivity of all cell line of particular subpanel (Prostate cancer subpanel): 3.02 µM | Selectivity, ratio MID a: MID b (Prostate cancer subpanel): 1.22 | GI50 (CCRF-CEM): 4.49 µM | activity at 10 µM (CCRF-CEM; [1]): 3.11% | GI50 (OVCAR-3; Homo sapiens, OVCAR-3, 48 h): 2.07 µM | Percentage Cell Growth (OVCAR-3; OVCAR-3, single dose 10 µM): −46.59% | GI50 (SK-MEL-5; Homo sapiens, SK-MEL-5, 48 h): 5.22 µM | Percentage Cell Growth (SK-MEL-5; SK-MEL-5, single dose 10 µM): −39.59% | Percentage Cell Growth (786-0; 786-0, single dose 10 µM): −72.16% | GI50 (786-0; Homo sapiens, 786-0, 48 h): 2.03 µM | GI50 (KM12; Homo sapiens, KM12, 48 h): 3.2 µM | Percentage Cell Growth (KM12; KM12, single dose 10 µM): −63.59% | GI50 (NCI-H23; Homo sapiens, NCI-H23, 48 h): 2.26 µM | Percentage Cell Growth (NCI-H23; NCI-H23, single dose 10 µM): −27.08% | GI50 (EKVX; Homo sapiens, 48 h): 2.96 µM | Percentage Cell Growth (EKVX; single dose 10 µM): −10.31% | GI50 (U251): 2.54 µM | activity at 10 µM (U251; [1]): -69.3% | GI50 (OVCAR-8; Homo sapiens, OVCAR-8, 48 h): 3.12 µM | Percentage Cell Growth (OVCAR-8; OVCAR-8, single dose 10 µM): −64.82% | GI50 (LOX IMVI; Homo sapiens, 48 h): 1.77 µM | Percentage Cell Growth (LOX IMVI; single dose 10 µM): −72.80% | GI50 (MALME-3M; Homo sapiens, Malme-3M, 48 h): 2.39 µM | Percentage Cell Growth (MALME-3M; MALME-3M, single dose 10 µM): −57.05%
